Article PMC8802549 (The Journal of Immunology Author Choice, 2022)
Where two headings read alike, the source gives them in different places.

How the values were obtained:
[1] = tested on: BoLA-1*023:01 class I molecule; experiment: Peptide–MHC class I binding assay (ELISA of p-MHC monomer folding); set-up: species or system bovine; settings: for Peptide binding to BoLA-1*023:01 (folding in ELISA), in words: Fig. 1B, 10-mer and peptides with 1 or 2 aa deletions at N- or C-terminal end; for Kd: 25 nM BoLA-1*023:01, 150 nM bovine β2m, peptide 0–40 μM, 48 h 18°C, one-site specific binding fit, representative experiment, duplicates
Description: Folding of p-MHC class I complexes was assessed with an ELISA assay as described by Svitek et al. ([34]). The BoLA-1*023:01 molecule (25 nM) and bovine β2m molecule (150 nM) were incubated in a 96-well plate with Tp9_67–75 (Muguga, G1 to A9, or V2 to V9) peptides (Mimotopes, purity: 95%) at various peptide concentrations ranging from 0 to 40 μM. After an incubation of 48 h at 18°C, the complexes were transferred to another 96-well plate precoated with streptavidin (catalog number [cat #] 436014; Nunc), which captures biotinylated heavy chains, and incubated for 3 h at 4°C. After washing, the W6/32 mAb (cat # SC-32235; Santa Cruz Biotechnology, TX), which binds to a monomorphic epitope on β2m, but only when it is incorporated in p-MHC class I complexes, was added for 1 h at 4°C. After washing, anti-mouse IgG coupled to peroxidase (cat # A9917-1ML; Sigma-Aldrich) was added to the plate followed by incubation for an hour at room temperature and further rounds of washes. Colorimetric change was performed by adding the TMB Plus2 “Ready to Use” Substrate (cat # 4395H; Kem En Tec) for 10 min at room temperature. The reaction was stopped by adding H2SO4 (0.3 M), and OD was measured using a Synergy HT ELISA plate reader (BioTek) at 450 nm. Kd values were determined by performing a nonlinear regression curve fit (One-Site Specific Binding) with GraphPad Prism (version 6).
Statistical analyses of data were performed with GraphPad Prism version 6 software. To determine the Kd, binding, and half-life values, we performed a nonlinear regression curve fit (One-Site, Specific binding). R^2 values and confidence intervals were generated to assess curve fit and differences between Kd values. When comparing data generated with the ELISPOT assay with a single peptide concentration, we performed a one-way ANOVA with Dunnett’s correction for multiple comparison. When comparing data generated with the ELISPOT assay with varying peptide concentrations, we performed a two-way ANOVA with Dunnett’s correction for multiple comparison (main column effect). All datasets were compared with the data obtained with the Tp9_67–75 Muguga epitope. All experiments were repeated twice using duplicate measurements.

[2] = tested on: CTL 495; experiment: IFN-γ ELISPOT with Tp9-specific CTL line 495; assay type: cell-based, cattle; settings: for IFN-γ ELISPOT stimulation of CTL 495, in words: Supplemental Fig. 1, minimal epitope peptides, relatively high peptide concentration; for IFN-γ ELISPOT response of CTL 495 vs Tp9_67–75 Muguga, in words: Fig. 3A, alanine/glycine-substituted peptides, 2.5 × 10^4 CD8+ cells/well, 20 h 37°C, reduced = SFU >15% lower than Tp9_67–75
Text: (§1) Autologous T. parva Muguga-infected lymphocyte (TpM) lines from animals BF092, 4003, and 495 and TpM-specific bulk CTLs lines after immunization by ITM were established as previously described ([37]). In brief, PBMCs harvested from immunized animals were stimulated at least three times, at weekly intervals, by coculturing with irradiated autologous T. parva–infected cells (TpMs) at a ratio of 5–10:1 (TpMs:PBMC) in RPMI media containing 15% T cell growth factor ([38]). Cells were maintained in RPMI 1640 culture medium (Sigma-Aldrich) containing 10% heat-inactivated FCS (Life Technologies), 2 mM L-glutamine (Sigma-Aldrich), 1 mg/ml gentamicin (Carl-Roth), 100 UI/ml penicillin (Sigma-Aldrich), 100 mg/ml streptomycin (Sigma-Aldrich), 2-ME (BDH, final concentration: 50 μM ([39]); a detailed description of our protocols can be found in Ref. [40]). The CTL lines from 4003 (A14 homozygous) and 495 (A10/A14 heterozygous) were propagated by stimulating them with cesium-137–irradiated autologous TpM (the use of radioisotope and irradiator was per institutional radiation safety guidelines; the length of exposure for inhibiting replication was empirically determined and found to be optimal with an exposure of 30 min at a distance of 10 cm of the cesium-137 source at 265 rad/min using a top linear irradiator [Conservatome, Lyon, France]), at a ratio of 1:5–10 (CTL:TpMs), and supplementing the media with 2 ng/ml recombinant human IL-2 (Sigma) or 15% T cell growth factor. Cells were incubated at 37°C in a 5% CO2 humidified atmosphere. Both CTLs recognize the Tp9 Ag. CTL clone 8 was derived from the CTL 495 by limiting dilution.
IFN-γ ELISPOT assay was performed as previously described ([34]). In brief, a monoclonal anti-bovine IFN-γ Ab (cat # MCA1783; Serotec, Oxford, U.K.) was incubated overnight at 4°C on ELISPOT plates (cat # MAIPN4550; Millipore, Billerica, MA, USA) and then blocked with RPMI containing 10% heat-inactivated FCS for 2 h at 37°C. Peptides (purity: 95%; Mimotopes) were added at concentrations ranging from 0.1 to 1 μM and CD8^+ cells at 2.5 × 10^4 cells/well. The plates were incubated at 37°C for 20 h. Release of IFN-γ was monitored with primary rabbit polyclonal anti-bovine IFN-γ Ab (Sigma-Aldrich, St. Louis, MO, USA) and secondary alkaline phosphatase–conjugated monoclonal anti-rabbit IgG (cat # A2556; Sigma-Aldrich, St. Louis, MO). Development of plates was done by addition of the substrate solution Sigma Fast (BCIP/NBT, cat # B5655-25TAB; Sigma-Aldrich, St. Louis, MO). Plates were read using an automated ELISPOT reader (AID Classic ELISpot Reader).
Statistical analyses of data were performed with GraphPad Prism version 6 software. To determine the Kd, binding, and half-life values, we performed a nonlinear regression curve fit (One-Site, Specific binding). […]

[3] = biological target: BoLA-1*023:01 MHC class I molecule with bovine β2-microglobulin (bovine) (UniProt P01888); experiment: ELISA
[4] = tested on: CTL 4003; experiment: IFN-γ ELISPOT with Tp9-specific CTL line 4003; assay type: cell-based, cattle; settings: Fig. 3A; alanine/glycine-substituted peptides; 2.5 × 10^4 CD8+ cells/well, 20 h 37°C; reduced = SFU >15% lower than Tp9_67–75
Text: as §1, with “Cells were maintained in RPMI 1640 culture medium (Sigma-Aldrich) containing 10% heat-inactivated FCS (Life Technologies), 2 mM L-glutamine (Sigma-Aldrich), 1 mg/ml gentamicin (Carl-Roth), 100 UI/ml penicillin (Sigma-Aldrich), 100 mg/ml streptomycin (Sigma-Aldrich), 2-ME (BDH, final concentration: 50 μM ([39]); a detailed description of our protocols can be found in Ref. [40]).” left out, “Cells were incubated at 37°C in a 5% CO2 humidified atmosphere. Both CTLs recognize the Tp9 Ag. CTL clone 8 was derived from the CTL 495 by limiting dilution.” left out
IFN-γ ELISPOT assay was performed as previously described ([34]). […] Release of IFN-γ was monitored with primary rabbit polyclonal anti-bovine IFN-γ Ab (Sigma-Aldrich, St. Louis, MO, USA) and secondary alkaline phosphatase–conjugated monoclonal anti-rabbit IgG (cat # A2556; Sigma-Aldrich, St. Louis, MO). […]

[5] = biological target: BoLA-1*023:01 MHC class I molecule with bovine β2-microglobulin (bovine) (UniProt P01888); experiment: ELISA; remark: listed apart in the source

## AKFPGMKK [Tp9_67–74, 8-mer Tp9 peptide with 2 aa deleted at the C-terminal end]
[1]
  Peptide binding to BoLA-1*023:01 (folding in ELISA), in words: showed binding
[2]
  IFN-γ ELISPOT stimulation of CTL 495, in words: capacity to stimulate

## AKFPGMKKSK [Tp9_67–76, 10-mer peptide from the T. parva (Muguga) Tp9 Ag]
[1]
  Peptide binding to BoLA-1*023:01 (folding in ELISA), in words: showed binding
[2]
  IFN-γ ELISPOT stimulation of CTL 495, in words: capacity to stimulate

## BoLA-1*023:01 control peptide
[3]
  Kd: 0.00694 µM

## FPGMKKSK [Tp9_69–76, Tp9 peptide with 2 aa deleted at the N-terminal end]
[1]
  Peptide binding to BoLA-1*023:01 (folding in ELISA), in words: no folding can be measured

## KFPGMKKSK [Tp9_68–76, Tp9 peptide with 1 aa deleted at the N-terminal end]
[1]
  Peptide binding to BoLA-1*023:01 (folding in ELISA), in words: no folding can be measured

## Tp9A2 peptide (Tp9_(67–75) Muguga with alanine at position 2)
[3]
  Kd: 0.192 µM

## Tp9A3 peptide (Tp9_(67–75) Muguga with alanine at position 3)
[3]
  Kd: 0.0862 µM

## Tp9A4 peptide (Tp9_(67–75) Muguga with alanine at position 4)
[3]
  Kd: 0.028 µM

## Tp9A5 peptide (Tp9_(67–75) Muguga with alanine at position 5)
[3]
  Kd: 0.023 µM

## Tp9A6 peptide (Tp9_(67–75) Muguga with alanine at position 6)
[3]
  Kd: 0.0166 µM

## Tp9A7 peptide (Tp9_(67–75) Muguga with alanine at position 7)
[3]
  Kd: 0.0101 µM

## Tp9A8 peptide (Tp9_(67–75) Muguga with alanine at position 8)
[3]
  Kd: 0.00258 µM

## Tp9A9 peptide (Tp9_(67–75) Muguga with alanine at position 9)
[3]
  Kd: 0.015 µM

## Tp9A9: Tp9_67–75 Muguga with alanine substitution at position 9 (AKFPGMKKA)
[1]; Fig. 2 lower panel, alanine-substituted Tp9_67–75
  Kd: 0.015 µM
[2]
  IFN-γ ELISPOT response of CTL 495 vs Tp9_67–75 Muguga, in words: enhanced stimulation
[4]
  IFN-γ ELISPOT response of CTL 4003 vs Tp9_67–75 Muguga, in words: enhanced stimulation

## Tp9G1 peptide (Tp9_(67–75) Muguga with glycine at position 1)
[3]
  Kd: 0.0134 µM

## Tp9G1: Tp9_67–75 Muguga with glycine at position 1 (GKFPGMKKS)
[1]; Fig. 2 upper panel, alanine/glycine-substituted Tp9_67–75
  Kd: 0.0134 µM
[2]
  IFN-γ ELISPOT response of CTL 495 vs Tp9_67–75 Muguga, in words: enhanced stimulation
[4]
  IFN-γ ELISPOT response of CTL 4003 vs Tp9_67–75 Muguga, in words: enhanced stimulation

## Tp9_(67–75) Muguga epitope peptide
[3]
  Kd: 0.0139 µM
[5]
  Kd: 0.0297 µM
